Details of series [1]: method as in PMID 29735645. Particulars: cited from earlier work.
The conditions of series [2]: cited from earlier work.
For series [3], the system named is procoagulant activity of Echis carinatus venom (citrated bovine plasma). In words: plasma clotting assay. It counts as biochemical. The arrangement: key: max of first derivative of A595 clot curve (max clotting velocity). Particulars: Echis carinatus venom 100 ng, independent repeats. The procedure:
(§1) We used a previously developed plasma clotting assay[35] to measure venom-induced coagulation. Briefly, 100 ng of each venom was incubated at 37 °C for 30 min in the presence or absence of inhibitors (150 µM to 150 nM final concentrations). The final reaction consisted of 10 µl venom ± inhibitors in PBS, 20 µl 20 mM CaCl2, and 20 µl citrated bovine plasma (VWR). The samples were pipetted in triplicate into 384-well plates, and absorbance monitored at 595 nm for 2 h at 25 °C on an Omega FLUOstar instrument. We calculated the maximum clotting velocity of each of the curves as per clot waveform analysis, by calculating the maximum of the first derivative. The means of at least three independent experimental runs for each condition were plotted at each inhibitor concentration with SEMs.

Series [4] relates to coagulopathic activity of Daboia russelii venom (citrated bovine plasma). As to the kind of experiment: plasma clotting assay. Also on record: key to maximum clotting velocity: max of first derivative of A595 clot curve (max clotting velocity). Particulars: for maximum clotting velocity: Daboia russelii venom 100 ng, independent repeats. It is filed as biochemical. The protocol:
as §1

For series [5], the system named is pro- and anticoagulant fractions of D. russelii venom. As to the kind of experiment: nanofractionation with plasma coagulation assay. It counts as biochemical, Daboia russelii. Particulars: nanofractionated D. russelii venom; inhibitor 0.0064 to 20 µM. The protocol:
Fifty microlitres of venom solution (D. russelii; 1 mg/ml) was injected into a Shimadzu LC-2010 system with nanofractionation in parallel. Separation was performed on a Waters XBridge reversed-phase C18 column (250 × 4.6 mm^2 column with 3.5 μm pore-size) at 30 °C. The total flow rate of the mobile phase solution was 0.5 ml/min with eluent A (98% H2O, 2% acetonitrile [ACN], 0.1% formic acid [FA]) and eluent B (98% ACN, 2% H2O, 0.1% FA). Liquid chromatography gradients consisted of a linear increase of mobile phase B from 0 to 50% in 20 min, followed by a linear increase to 90% B in 4 min, then isocratic at 90% B for 5 min, after which the percentage of mobile phase B was decreased from 90 to 0% in 1 min, followed by 10 min at 0% B to re-equilibrate. The effluent was split in a 1:9 ratio of which the 10% fraction was sent to a Shimadzu SPD-M20A prominence diode array detector and the 90% fraction was directed to a nanofractionation collector which dispensed the fractions into transparent 384-well plates (F-bottom, rounded square well, polystyrene, without lid, clear, non-sterile; Greiner Bio One, Alphen aan den Rijn, The Netherlands) at a resolution of 6 s/well. The collector used was either a commercially available FractioMate^TM nanofractionator (SPARK-Holland & VU, Netherlands, Emmen & Amsterdam) controlled by FractioMator software v1.0 (Spark-Holland, The Netherlands, Emmen) or a modified Gilson 235P autosampler controlled by in-house written software Ariadne v1.8 (VU Amsterdam). The well plates with venom fractions were then dried overnight in a Christ Rotational Vacuum Concentrator (RVC 2 − 33 CD plus, Zalm en Kipp, Breukelen, The Netherlands) equipped with a cooling trap, and maintained at −80 °C during operation. The freeze-dried plates were then stored at −80 °C prior to bioassaying.
The final assay concentrations of the inhibitors tested in the assay were 20, 4, 0.8, 0.16, 0.032, and 0.0064 µM. The plates were then incubated for 30 min at room temperature, and during this time bovine plasma (Sterile Filtered, Biowest, Nuaille, France) was defrosted in a water bath and centrifuged for 4 min at 805 × g prior to use. […] The plate was then read immediately for absorbance kinetically for 100 min at 595 nm at 25 °C using a Varioskan Flash Multimode Reader (Thermo Fisher Scientific, Ermelo, The Netherlands). The obtained results were normalized by dividing the slope measured in each well by the median of all slope values across the plate, and the processed coagulation chromatograms were plotted to visualize very fast coagulation, medium increased coagulation and anticoagulation, as previously described.

Values joined by “and” are separate entries in the source; they are usually repeats but may differ in a detail not shown here. Equal values may be shown once. Read-outs that look alike come from different tables or passages of the source.

As a reminder, the half-life is how long it takes for the measured level to halve. On to `CNC(=O)[C@@H](NC(=O)[C@H](CC(C)C)[C@H](O)C(=O)NO)C(C)(C)C` [marimastat], for which the “solubility compared with batimastat” value in series [1] was “increased solubility”. For the same compound, the “daily doses with no notable side effects” value in series [2] (28 days, patients with advanced pancreatic cancer) was 75 mg. Besides, in series [2], the “single doses with no notable side effects” value is “up to 800 mg”. Also, the “bidaily doses with no notable side effects” value in series [2] (for 6.5 days) is listed as 200 mg. Also, the oral bioavailability in series [2] (no reference given) is given as 70%; in series [2] (vs parenteral administration of batimastat), “excellent oral bioavailability”. For the same compound, the half-life in series [2] (oral) was 8 to 10 h. In series [2] (oral), the “time to peak plasma concentrations post-administration” value is 1.5 to 3 h. Further, the maximum clotting velocity in series [3] (inhibitor 15 µM) is 0.03177 and 0.03235; in series [3] (inhibitor 150 µM), 0.03353 and 0.03265 and 0.02823; in series [4] (inhibitor 15 µM) it was 0.01941 and 0.01206 and 0.01103; in series [4] (inhibitor 150 µM), 0.005735 and 0.003235. Moreover, the “effect on clotting after complete neutralization of SVMP activity” value in series [4] (D. russelii venom, high doses) was “revealed clear venom anticoagulant effects”. The “inhibition of anticoagulant venom fractions” value in series [5] is listed as “not neutralized”. Moreover, the “inhibition of procoagulant venom fractions” value in series [5] is recorded as “effectively inhibited in a dose-dependent manner”.

These data come from article PMC7738508, “A therapeutic combination of two small molecule toxin inhibitors provides broad preclinical efficacy against viper snakebite” (Nature Communications, 2020).
